# Data: patent US7345091B2, “Carotenoid ether analogs or derivatives for the inhibition and amelioration of disease” (Cardax Pharmaceuticals, Inc., priority 2002, dated 2008)
# Read-outs that look alike come from different tables or passages of the source.
# Assays:
# [1] = Determination of water solubility; assay type: physicochemical
# Protocol: A total of 30 mg of sample (disodium disuccinate astaxanthin derivative, as the all-trans mixture of stereoisomers 3S,3′S, meso, and 3R,3′R in a 1:2:1 ratio) was added to 2 mL of sterile-filtered ([…] Millipore®) deionized (DI) water in a 15 mL glass centrifuge tube. The tube was wrapped in aluminum foil and the mixture was shaken for 2 hours, then centrifuged at 3500 rpm for 10 minutes. The aqueous solution was filtered through a 0.45 micron PVDF disposable filter device. A 1 mL volume of filtrate was then diluted appropriately with DI water, and the concentration of the solution was measured at 480 nm using a four point calibration curve prepared from fresh sample.
# superoxide anion = assay: Superoxide anion scavenging by EPR (DEPMPO spin trap) in phorbol ester-stimulated isolated neutrophils; assay type: cell-based, human; conditions: for Mean (% inhibition) of superoxide anion signal: 0.1 mM; for reduction of superoxide anion signal: aqueous
# Protocol: In an experiment, neutrophils were isolated on a Percoll gradient from whole blood from a human volunteer. The isolated neutrophils were then re-suspended in phosphate-buffered saline, and maximally stimulated with phorbol ester to induce the respiratory burst and production of superoxide anion. To the solution of activated human neutrophils, the disodium salt disuccinate astaxanthin derivative XVI was added at various concentrations, and the superoxide signal [as measured with electron paramagnetic resonance (EPR) spectroscopy] was subsequently measured. […] The disodium salt disuccinate astaxanthin derivative XVI tested at 100 μM scavenged 28% of the total signal. At 3 mM, almost no superoxide signal remained. […] In addition to reducing the superoxide anion signal important in ischemia-reperfusion injury, it is also likely that myocardial salvage can be achieved with the described carotenoid derivative, as superoxide anion plays a major role in tissue injury and death during prolonged myocardial ischemia. In a third experiment, neutrophils were again isolated on a Percoll gradient from whole blood from a second human volunteer. The isolated neutrophils were then re-suspended in phosphate-buffered saline, and maximally stimulated with phorbol ester to induce the respiratory burst and production of superoxide anion. […] Astaxanthin 2E was dissolved in HPLC grade dimethylsulfoxide (DMSO; Sigma-Aldrich, St. Louis, Mo.). The disodium disuccinate derivatives XVI of astaxanthin 2E were tested separately in […] formulations: statistical mixture of stereoisomers (as for astaxanthin, above, a 1:2:1 mixture of all-E; labeled as “mixture” in all tables and figures); 3S,3'S, and 3R,3'R (optical isomers or enantiomers); and meso (mixture of identical 3S,3'R and 3'S,3R; diastereomers of the enantiomeric pair). […] The disuccinate derivatives were first tested at the appropriate final concentrations in pure aqueous solution (deionized water) from stock solutions of 10 mM. Each of the four disuccinate derivatives were then tested from stock solutions prepared in a 1:2 mixture of ethanol (final concentration of EtOH in stock solution 331⁄3%; final concentration in isolated neutrophil assay 0.3%; HPLC grade ethanol, Sigma-Aldrich, St. Louis, Mo.) at 10 mM. […] Metaphore® Pharmaceuticals, Inc., St. Louis, Mo.) were also performed. Human polymorphonuclear leukocytes (PMNs) were isolated from freshly sampled venous blood of a single volunteer by Percoll density gradient centrifugation, which yielded PMNs with a purity of >95%. Each 10 mL of whole blood was mixed with 0.8 mL of 0.1 M EDTA and 25 mL of saline. The diluted blood was layered over 9 mL of Percoll at a specific density of 1.080 g/mL. After centrifugation at 400×g for 20 min at 20° C., the plasma, mononuclear cell, and Percoll layers were removed. Erythrocytes were lysed by addition of 18 mL of ice-cold water for 30 s, followed by 2 mL of 10× PIPES buffer (25 mM PIPES, 110 mM NaCl, and 5 mM KCl, titrated to pH 7.4 with NaOH). Cells were pelleted at 4° C., the supernatant was decanted, and the procedure was repeated. After the second hypotonic lysis, cells were washed twice with PAG buffer (PIPES buffer containing 0.003% human serum albumin and 0.1% glucose). Afterward, PMNs were counted by light microscopy on a hemocytometer. The final pellet was then suspended in PAG-CM buffer (PAG buffer with 1 mM CaCl2 and 1 mM MgCl2). All EPR measurements were performed using a Bruker ER 300 EPR spectrometer operating at X-band with a TM110 cavity. The microwave frequency was measured with a Model 575 microwave counter (EIP Microwave, Inc., San Jose, Calif.). To measure O^ -2 generation from phorbol-ester (PMA)-stimulated PMNs, EPR spin-trapping studies were performed using DEPMPO (Oxis, Portland, Oreg.) at 10 mM. 1×10^6 PMNs were stimulated with PMA (1 ng/mL) and loaded into capillary tubes for EPR measurements. […]
# Cx43 protein = Cx43 protein expression by stereoisomer forms (immuno-(Western) blotting, 4 days); assay type: cell-based, mouse; conditions: 1×10^-5 M in 1:2 ethanol/H2O, four days; vs 1:2 ethanol/H2O alone
# Protocol: (2) Molecular Studies. […] Briefly, mouse embryonic fibroblast C3H10T1/2 cells were cultured in Eagle's basal medium with Earle's salts (Atlanta Biologicals, Atlanta, Ga.), supplemented with 5% fetal calf serum (Atlanta Biologicals, Atlanta, Ga.) and 25 μg/mL gentamicin sulfate (Sigma, St. Louis, Mo.), and incubated at 37° C. in 5% CO2. On the 7th day after seeding in 100 millimeter (mm) dishes, the confluent cells were treated for four days with the disodium salt disuccinate astaxanthin derivatives XVI and then harvested and analyzed for Cx43 protein induction as described. Protein content was measured using the Protein Assay Reagent kit (Pierce Chemical Co., Rockford, Ill.) according to manufacturer's instructions. Cell lysates containing 100 μg of protein were analyzed by Western blotting using the NuPage western blotting kit and apparatus (Invitrogen, Carlsbad, Calif.) and Cx43 protein detected using a rabbit polyclonal antibody (Zymed, San Francisco, Calif.) raised against a synthetic polypeptide corresponding to the C-terminal domain of mouse, human and rat Cx43. Cx43 immunoreactive bands were visualized by chemiluminescence using an anti-rabbit HRP-conjugated secondary antibody (Pierce Chemical Co., Rockford, Ill.). Digital images were obtained with a cooled CCD camera, and quantitative densitometry was then performed (Bio-Rad, Richmond, Calif.).
# [2] = target: human serum albumin (HSA) (Homo sapiens, UniProt P02768)
# human serum albumin (HSA), sequence (P02768 25-609): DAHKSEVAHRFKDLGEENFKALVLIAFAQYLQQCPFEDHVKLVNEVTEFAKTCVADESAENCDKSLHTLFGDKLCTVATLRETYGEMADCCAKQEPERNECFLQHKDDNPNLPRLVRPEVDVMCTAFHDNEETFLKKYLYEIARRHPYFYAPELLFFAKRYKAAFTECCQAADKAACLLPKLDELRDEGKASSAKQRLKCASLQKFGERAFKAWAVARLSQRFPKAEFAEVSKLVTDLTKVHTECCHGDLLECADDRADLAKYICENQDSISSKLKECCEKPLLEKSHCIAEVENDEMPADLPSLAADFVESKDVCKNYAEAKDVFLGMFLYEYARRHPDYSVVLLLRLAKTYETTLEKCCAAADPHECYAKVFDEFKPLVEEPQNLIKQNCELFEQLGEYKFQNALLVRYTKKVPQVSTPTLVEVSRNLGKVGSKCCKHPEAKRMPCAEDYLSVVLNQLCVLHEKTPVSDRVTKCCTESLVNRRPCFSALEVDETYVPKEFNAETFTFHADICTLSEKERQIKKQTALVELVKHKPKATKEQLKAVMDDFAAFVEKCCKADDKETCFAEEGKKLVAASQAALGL
# Protocol: For spectroscopic sample preparation, HSA was dissolved in pH 7.4 Ringer or 0.1 M pH 7.4 phosphate buffer solutions. Albumin concentration was calculated with the value of E1cm^1%=5.31, using experimentally obtained absorbance data at 279 nm. The molecular weight of HSA was defined as 66500 Da.
# CD and UV spectra were recorded on a Jasco J-715 spectropolarimeter at 25±0.2 and 37±0.2° C. in a rectangular cuvette with 1 cm pathlength. Temperature control was provided by a Peltier thermostat equipped with magnetic stirring. All spectra were accumulated three times with a bandwidth of 1.0 nm and a resolution of 0.5 nm at a scan speed of 100 nm/min. Induced CD was defined as the CD of the dAST XVI-HSA mixture minus the CD of HSA alone at the same wavelengths, and is expressed as ellipticity in millidegrees (mdeg).
# Ringer buffer, I/P values from 0.007 to 0.10: 2 mL of 1.6×10^−4 M HSA solution was placed in the cuvette with 1 cm optical pathlength and small amounts of the ligand stock solution (c=2.2×10^−4) were added with an automatic pipette in 10 μL aliquots. Ringer buffer, L/P values from 0.82 to 13.13: 2 ml of 2.3×10^−6 M HSA solution was placed in the cuvette with 1 cm optical pathlength and μL volumes of the ligand stock solution (c=3.9×10^−4) were added with an automatic pipette. Phosphate buffer, L/P values from 0.82 to 13.10: 2 mL of 2.2×10^−6 M HSA solution was placed in the cuvette with 1 cm optical pathlength and μL volumes of the ligand stock solution (c=3.6×10^−4) were added with an automatic pipette.
# 2 mL of 4.2×10^−6 M HSA solution was prepared in a 1 cm rectangular cell in 0.1 M pH 7.4 phosphate buffer. […] Total fluorescence intensity was collected at each wavelength with a Hamamatsu H5784-type photomultiplier detector mounted on a right angle to the light source. […] A control experiment was also performed, in which the fluorescence of HSA during addition of 20, 50 and 100 μL DMSO to the solution was measured.
# [3] = for behavior as radical quencher compared with non-esterified, free astaxanthin: formation of carotenoid radical cation
# Source text: FIG. 27 and FIG. 28 depict the results of spectral analysis after flash photolysis of the formation of triplet and carotenoid cation radical states for non-esterified, free astaxanthin 2E and the diacid disuccinate astaxanthin derivative XV were obtained. Formation of the carotenoid cation radical is a measure of the potential biophysical behavior of the novel derivative as an antioxidant. If a derivative retains the antioxidant behavior of non-esterified, free astaxanthin, then all previously documented (i.e. literature precedent) therapeutic applications for astaxanthin can be reasonably assumed for the novel derivative, including at least singlet oxygen quenching, lipid peroxidation chain-breaking, and/or direct radical scavenging.
# In this experiment, nitronaftalin (NN) was used as the photosensitizer. After irradiation, the excited sensitizer (NN*) forms a sensitizer triplet (^3NN). When ^3NN encounters a carotenoid, energy and electron transfer reactions with ^3NN take place. The resulting relatively stable ^3car and carotenoid cation radicals (car*^+) are detected by characteristic absorption bands. Non-polar solvents (e.g. hexane) favor the formation of ^3car, and more polar solvents (alcohols, water) favor the formation of the car.^+. The anion radical of the sensitizer (NN.^−) is not typically seen because of a low absorption coefficient.
# The ^3car decays rather quickly. After 15 μs, half of the ^3car has disappeared, and after 50 μs, no ^3car is left.
# The spectrum of asta 2E is nearly identical to that of astaCOOH XV. After 50 μs, the ^3car has disappeared. During this time frame, the car.^+ is stable. Negative and positive peaks in the absorption spectra for astaCOOH XV and asta 2E are superimposable.
smiles,measurement,setting,value
"CC(C=CC=C(C)C=CC1=C(C)C(=O)C(OC(=O)CCC(=O)OCC(O)C2OC(=O)C(O)=C2O)CC1(C)C)=CC=CC=C(C)C=CC=C(C)C=CC1=C(C)C(=O)C(OC(=O)CCC(=O)OCC(O)C2OC(=O)C(O)=C2O)CC1(C)C (stereo not drawn) [XXIII, Succinic acid 4-[18-(4-{3-[2-(3,4-dihydroxy-5-oxo-2,5-dihydrofuran-2-yl)-2-hydroxy-ethoxycarbonyl]-propionyloxy}-2,6,6-trimethyl-2-oxo-cyclohex-1-enyl)-3,7,12,16-tetramethyl-octadeca-1,3,5,7,9,11,13,15,17-nonaenyl]-3,5,5-trimethyl-2-oxo-cyclohex-3-enyl ester 2-(3,4-dihydroxy-5-oxo-2,5-dihydrofuran-2-yl)-2-hydroxy-ethyl ester]",water solubility,[1],highly water soluble
same,increase in radical scavenging potency over the disodium disuccinate astaxanthin derivative (XVI),superoxide anion,50 fold
same,inhibition of superoxide anion signal,"superoxide anion; 60 μM, without a co-solvent",nearly complete inhibition
same,concentration at which complete suppression of the superoxide anion signal was achieved,"superoxide anion; activated human neutrophils, EPR",60 µM
"CC1=C(/C=C/C(C)=C/C=C/C(C)=C/C=C/C=C(C)/C=C/C=C(C)/C=C/C2=C(C)C(=O)[C@H](OC(=O)CCC(=O)[O-])CC2(C)C)C(C)(C)C[C@H](OC(=O)CCC(=O)[O-])C1=O.[Na+].[Na+] [Meso, disodium salt disuccinate derivative XVI (dAST) of synthetic meso-astaxanthin (3R,3′S-dihydroxy-β,β-carotene-4,4′-dione)]",expression of Cx43 protein,Cx43 protein,increase expression of Cx43 protein
same,Mean (% inhibition) of superoxide anion signal,"superoxide anion; Solvent EtOH (1:2 EtOH/water stock, 0.3% final)",42.5%
same,Mean (% inhibition) of superoxide anion signal,superoxide anion; Solvent Water,15.7%
same,quenching of the intrinsic fluorescence of HSA,"[2]; 0.1 M pH 7.4 phosphate buffer, 37° C.",able to effectively quench the intrinsic fluorescence of HSA
same,decrease of baseline fluorescence intensity of HSA,"[2]; L/P ratio of 0.7, 0.1 M pH 7.4 phosphate buffer, 37° C.",50%
same,mode of binding to HSA,"[2]; low ligand/protein molar ratios, pH 7.4 Ringer buffer",monomeric form
"CC1=C(/C=C/C(C)=C/C=C/C(C)=C/C=C/C=C(C)/C=C/C=C(C)/C=C/C2=C(C)C(=O)C(OC(=O)C(N)CCCCN)CC2(C)C)C(C)(C)CC(OC(=O)C(N)CCCCN)C1=O.Cl.Cl.Cl (stereo not drawn) [XX, Tetrahydrochloride Salt of the Dilysinate Ester of Astaxanthin]",solubility at 2 h,"[1]; deionized water, water, thermodynamic from solid, pure aqueous formulation",> 50 mg/mL
same,reduction of superoxide anion signal,superoxide anion; 1 μM,approximately 5%
same,reduction of superoxide anion signal,superoxide anion; 3 mM,98%
"CC1=C(/C=C/C(C)=C/C=C/C(C)=C/C=C/C=C(C)/C=C/C=C(C)/C=C/C2=C(C)C(=O)C(OC(=O)CCC(=O)O)CC2(C)C)C(C)(C)CC(OC(=O)CCC(=O)O)C1=O (stereo not drawn) [XV, Succinic Acid mono-(4-{18-[4-(3-carboxy-propionyloxy)-2,6,6-trimethyl-3-oxo-cyclohex-1-enyl]-3,7,12,16-tetramethyl-octadeca-1,3,5,7,9,11,13,15,17-nonaenyl}-3,5,5-trimethyl-2-oxo-cyclohex-3-enyl) ester]",stability of the carotenoid cation radical (car.+),[3],stable within this time frame
same,time after which half of the 3car (carotenoid triplet) has disappeared,"[3]; acetonitrile, sensitizer NN",15 μs
same,time after which no 3car (carotenoid triplet) is left,"[3]; acetonitrile, sensitizer NN",50 μs
same,"behavior as radical quencher compared with non-esterified, free astaxanthin","[3]; acetonitrile, sensitizer NN",behaves like asta 2E
same,"behavior as radical quencher compared with non-esterified, free astaxanthin","[3]; acetonitrile, sensitizer NN, listed as astaCOOH","identically to non-esterified, free racemic astaxanthin"
